Test results from the supplement of paper PMC11061612.

What was measured:
Carboplatin = compound: C1CC(C1)(C(=O)[O-])C(=O)[O-].N.N.[Pt+2] [Carboplatin]; conditions: max 10 µM
Outline: (§1)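 Cancer cell lines in 1536-well plates (7.5 μl DMEM/F12 or RPMI, 10% FBS) were held 24 hours at 37°C and 5% CO2 and then dosed for 72 hours at a final DMSO of typically 0.2%. Viability was taken from CellTiter-Glo 2.0 luminescence, scaled between blank-well and DMSO-well means. Curves were fitted as two-parameter logistic models with a non-linear mixed effects model, from which the single-agent IC50 was taken.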

AZD5363 = compound: C1CN(CCC1(C(=O)N[C@@H](CCO)C2=CC=C(C=C2)Cl)N)C3=NC=NC4=C3C=CN4 [AZD5363]; conditions: max 10 µM
Outline: as §1

AZD1775 = compound: C=CCn1c(=O)c2cnc(Nc3ccc(N4CCN(C)CC4)cc3)nc2n1-c1cccc(C(C)(C)O)n1 [AZD1775]
Outline: as §1

Trametinib = compound: CC(=O)Nc1cccc(-n2c(=O)n(C3CC3)c(=O)c3c(Nc4ccc(I)cc4F)n(C)c(=O)c(C)c32)c1 [Trametinib]; conditions: max 1 µM
Outline: as §1

Paclitaxel = compound: CC(=O)O[C@H]1C(=O)[C@@]2(C)[C@H]([C@H](OC(=O)c3ccccc3)[C@]3(O)C[C@H](OC(=O)[C@H](O)[C@@H](NC(=O)c4ccccc4)c4ccccc4)C(C)=C1C3(C)C)[C@]1(OC(C)=O)CO[C@@H]1C[C@@H]2O [Paclitaxel]; conditions: max 3 µM
Outline: as §1

Palbociclib = compound: CC(=O)c1c(C)c2cnc(Nc3ccc(N4CCNCC4)cn3)nc2n(C2CCCC2)c1=O [Palbociclib]; conditions: max 10 µM
Outline: as §1

AZD1390 = compound: CC(C)n1c(=O)n(C)c2cnc3cc(F)c(-c4ccc(OCCCN5CCCCC5)nc4)cc3c21 [AZD1390]; conditions: max 0.3 µM
Outline: as §1

Venetoclax = compound: CC1(C)CCC(CN2CCN(c3ccc(C(=O)NS(=O)(=O)c4ccc(NCC5CCOCC5)c([N+](=O)[O-])c4)c(Oc4cnc5[nH]ccc5c4)c3)CC2)=C(c2ccc(Cl)cc2)C1 [Venetoclax]; conditions: max 1 µM
Outline: as §1

Dasatinib = compound: CC1=C(C(=CC=C1)Cl)NC(=O)C2=CN=C(S2)NC3=CC(=NC(=N3)C)N4CCN(CC4)CCO [Dasatinib]; conditions: max 2 µM
Outline: as §1

SG3199 = compound: CC1=CN2[C@@H](C1)C=NC3=CC(=C(C=C3C2=O)OC)OCCCCCOC4=C(C=C5C(=C4)N=C[C@@H]6CC(=CN6C5=O)C)OC [SG3199]; conditions: max 0.001 µM
Outline: as §1

AZD2811 = compound: CCN(CCO)CCCOc1ccc2c(Nc3cc(CC(=O)Nc4cccc(F)c4)[nH]n3)ncnc2c1 [AZD2811]; conditions: max 1 µM
Outline: as §1

SN-38 = compound: CCc1c2c(nc3ccc(O)cc13)-c1cc3c(c(=O)n1C2)COC(=O)[C@]3(O)CC [SN-38]; conditions: max 0.3 µM
Outline: as §1

AZD0156 = compound: CN(C)CCCOc1ccc(-c2ccc3ncc4c(c3c2)n(C2CCOCC2)c(=O)n4C)cn1 [AZD0156]
Outline: as §1

AZD4320 = compound: CN(CC[C@H](CSC1=CC=CC=C1)NC2=C(C=C(C=C2)S(=O)(=O)NC(=O)C3=CC=C(C=C3)N4CCC(CC4)[C@H](C5=CC=CC=C5C6=CC=C(C=C6)Cl)O)S(=O)(=O)C(F)(F)F)CCO [AZD4320]; conditions: max 1 µM
Outline: as §1

Alisertib = compound: COc1cc(Nc2ncc3c(n2)-c2ccc(Cl)cc2C(c2c(F)cccc2OC)=NC3)ccc1C(=O)O [Alisertib]; conditions: max 10 µM
Outline: as §1

Etoposide = compound: COc1cc([C@@H]2c3cc4c(cc3[C@@H](O[C@@H]3O[C@@H]5CO[C@@H](C)O[C@H]5[C@H](O)[C@H]3O)[C@H]3COC(=O)[C@H]23)OCO4)cc(OC)c1O [Etoposide]; conditions: max 10 µM
Outline: as §1

Gefitinib = compound: COc1cc2ncnc(Nc3ccc(F)c(Cl)c3)c2cc1OCCCN1CCOCC1 [Gefitinib]; conditions: max 10 µM
Outline: as §1

Prexasertib = compound: COc1cccc(OCCCN)c1-c1cc(Nc2cnc(C#N)cn2)n[nH]1 [Prexasertib]; conditions: max 1 µM
Outline: as §1

Doxorubicin = compound: COc1cccc2c1C(=O)c1c(O)c3c(c(O)c1C2=O)C[C@@](O)(C(=O)CO)C[C@@H]3O[C@H]1C[C@H](N)[C@H](O)[C@H](C)O1 [Doxorubicin]; conditions: max 1 µM
Outline: as §1

AZD5153 = compound: COc1nnc2ccc(N3CCC(c4ccc(OCCN5CCN(C)C(=O)[C@H]5C)cc4)CC3)nn12 [AZD5153]; conditions: max 1 µM
Outline: as §1

Lapatinib = compound: CS(=O)(=O)CCNCc1ccc(-c2ccc3ncnc(Nc4ccc(OCc5cccc(F)c5)c(Cl)c4)c3c2)o1 [Lapatinib]; conditions: max 10 µM
Outline: as §1

AZD8186 = compound: C[C@@H](Nc1cc(F)cc(F)c1)c1cc(C(=O)N(C)C)cc2c(=O)cc(N3CCOCC3)oc12 [AZD8186]; conditions: max 10 µM
Outline: as §1

Crizotinib = compound: C[C@@H](Oc1cc(-c2cnn(C3CCNCC3)c2)cnc1N)c1c(Cl)ccc(F)c1Cl [Crizotinib]; conditions: max 10 µM
Outline: as §1

Savolitinib = compound: C[C@@H](c1ccc2nccn2c1)n1nnc2ncc(-c3cnn(C)c3)nc21 [Savolitinib]; conditions: max 1 µM
Outline: as §1

AZD6738 = compound: C[C@@H]1COCCN1C2=NC(=NC(=C2)C3(CC3)[S@](=N)(=O)C)C4=C5C=CNC5=NC=C4 [AZD6738]; conditions: max 10 µM
Outline: as §1

AZD5991 = compound: Cc1c2c(nn1C)CSCc1cc(n(C)n1)CSc1cc(c3ccccc3c1)OCCCc1c(C(=O)O)n(C)c3c-2c(Cl)ccc13 [AZD5991]; conditions: max 1 µM
Outline: as §1

AZD7648 = compound: Cc1cc2ncnn2cc1Nc1ncc2c(n1)n(C1CCOCC1)c(=O)n2C [AZD7648]; conditions: max 10 µM
Outline: as §1

Taselisib = compound: Cc1nc(-c2cn3c(n2)-c2ccc(-c4cnn(C(C)(C)C(N)=O)c4)cc2OCC3)n(C(C)C)n1 [Taselisib]; conditions: max 10 µM
Outline: as §1

Selumetinib = compound: Cn1cnc2c(F)c(Nc3ccc(Br)cc3Cl)c(C(=O)NOCCO)cc21 [Selumetinib]; conditions: max 10 µM
Outline: as §1

SRA737 = compound: N#Cc1cnc(Nc2cc(NC[C@H]3CNCCO3)c(C(F)(F)F)cn2)cn1 [SRA737]; conditions: max 10 µM
Outline: as §1

MK-2206 = compound: NC1(c2ccc(-c3nc4ccn5c(=O)[nH]nc5c4cc3-c3ccccc3)cc2)CCC1 [MK-2206]; conditions: max 10 µM
Outline: as §1

Gemcitabine = compound: Nc1ccn([C@@H]2O[C@H](CO)[C@@H](O)C2(F)F)c(=O)n1 [Gemcitabine]; conditions: max 0.3 µM
Outline: as §1

[1] = compound: O=C(Nc1ccc2[nH]nc(-c3ccncc3)c2c1)[C@@H]1CCN(CC(=O)N2CCN(c3ccc(-c4ncccn4)cc3)CC2)C1; conditions: max 5 µM
Outline: as §1

Olaparib = compound: O=C(c1cc(Cc2n[nH]c(=O)c3ccccc23)ccc1F)N1CCN(C(=O)C2CC2)CC1 [Olaparib]; conditions: max 10 µM
Outline: as §1

5-Fluorouracil = compound: O=c1[nH]cc(F)c(=O)[nH]1 [5-Fluorouracil]; conditions: max 20 µM
Outline: as §1

Row | Cell Line | IC50, cell viability 72 h (Carboplatin) [µM] | IC50, cell viability 72 h (AZD5363) [µM] | IC50, cell viability 72 h (AZD1775; max 3 µM) [µM] | IC50, cell viability 72 h (Trametinib) [µM] | IC50, cell viability 72 h (Paclitaxel) [µM] | IC50, cell viability 72 h (Palbociclib) [µM] | IC50, cell viability 72 h (AZD1390) [µM] | IC50, cell viability 72 h (Venetoclax) [µM] | IC50, cell viability 72 h (Dasatinib) [µM] | IC50, cell viability 72 h (SG3199) [µM] | IC50, cell viability 72 h (AZD2811) [µM] | IC50, cell viability 72 h (SN-38) [µM] | IC50, cell viability 72 h (AZD0156; max 3 µM) [µM] | IC50, cell viability 72 h (AZD4320) [µM] | IC50, cell viability 72 h (Alisertib) [µM] | IC50, cell viability 72 h (Etoposide) [µM] | IC50, cell viability 72 h (Gefitinib) [µM] | IC50, cell viability 72 h (Prexasertib) [µM] | IC50, cell viability 72 h (Doxorubicin) [µM] | IC50, cell viability 72 h (AZD5153) [µM] | IC50, cell viability 72 h (Lapatinib) [µM] | IC50, cell viability 72 h (AZD8186) [µM] | IC50, cell viability 72 h (Crizotinib) [µM] | IC50, cell viability 72 h (Savolitinib) [µM] | IC50, cell viability 72 h (AZD6738) [µM] | IC50, cell viability 72 h (AZD5991) [µM] | IC50, cell viability 72 h (AZD7648) [µM] | IC50, cell viability 72 h (Taselisib) [µM] | IC50, cell viability 72 h (Selumetinib) [µM] | IC50, cell viability 72 h (SRA737) [µM] | IC50, cell viability 72 h (MK-2206) [µM] | IC50, cell viability 72 h (Gemcitabine) [µM] | IC50, cell viability 72 h [1] [µM] | IC50, cell viability 72 h (Olaparib) [µM] | IC50, cell viability 72 h (5-Fluorouracil) [µM] | IC50, cell viability 72 h (AZD1775; max 1 µM) [µM] | IC50, cell viability 72 h (AZD0156; max 1 µM) [µM]
1 | HuCCT1 (Biliary Tract Carcinoma) | > 10 | > 10 | 0.583 | 0.314 | 0.294 | > 10 | > 0.3 | > 1 | 0.918 | > 0.001 | > 1 | 0.184 | > 3 | > 1 | > 10 | > 10 | > 10 | 0.0354 | 0.71 | 0.78 | > 10 | > 10 | > 10 | > 1 | 4.36 | > 1 | > 10 | > 10 | 6.72 | 6.75 | > 10 | > 0.3 | 1.79 | > 10 | > 20 |  | 
2 | LOXIMVI (Melanoma) | > 10 | > 10 | 1.37 | 0.0178 | 0.0268 | 9.91 | > 0.3 | > 1 | 0.135 | > 0.001 | > 1 | 0.0289 | > 3 | > 1 | 5.35 | > 10 | > 10 | 0.0896 | 0.294 | 0.111 | > 10 | > 10 | 6.35 | > 1 | 3.27 | > 1 | > 10 | 2.17 | 1.5 | > 10 | > 10 | 0.0589 | 0.145 | > 10 | > 20 |  | 
3 | SNU-16 (Gastric Carcinoma) | > 10 | > 10 |  | > 1 | < 0.003 | 6.23 | > 0.3 | > 1 | > 2 | > 0.001 | 0.479 | 0.0229 |  | > 1 | 0.106 | 5.56 | 9.59 | 0.0101 | 0.301 | 0.241 | > 10 | > 10 | 2.8 | > 1 | 0.754 | 0.17 | > 10 | > 10 | > 10 | 1.2 | > 10 | 0.00696 | > 5 | > 10 | > 20 | 0.522 | > 1
4 | WSU-NHL (B-Cell Non-Hodgkin's Lymphoma) | > 10 | 0.809 | 0.41 | > 1 | < 0.003 | 1.28 | > 0.3 | 0.0642 | 0.0126 | > 0.001 | 0.134 | 0.00241 | > 3 | 0.0814 | 0.0736 | 0.16 | > 10 | 0.0152 | 0.0142 | 0.0459 | 9.55 | 0.397 | 4.52 | > 1 | 0.998 | 0.321 | > 10 | 0.0705 | > 10 | 2.31 | 0.543 | 0.00525 | > 5 | 7.07 | 5.46 |  | 
